Test results reported in patent publication US11603355B2, “Charged ion channel blockers and methods for use” (Nocion Therapeutics, Inc., priority 2019, dated 2023).

How the values were obtained:
[1] = biological target: T1, NaV1.7 (Homo sapiens, UniProt Q15858); test: Manual patch clamp, internal block of NaV1.7 current; assay type: cell-based; details: compound in internal solution, HEK293 cells, read-out: Nav1.7 Intracellular Inhibition; for inhibition at 10 µM: % inhibition at 10 μM test concentration; for inhibition at 3 µM: % inhibition at 3 μM test concentration
T1 construct: expressed in transfected cells; host or cells: HEK293 (tetracycline-inducible)
Method: Representative compounds of the invention were synthesized according to the described methods and tested for the ability to inhibit voltage-gated sodium channels.
NaV1.7 was expressed in HEK293 cells upon induction with tetracycline. Cells were cultured in DMEM containing 10% dialyzed Fetal Bovine Serum (VWR, Radnor, Pa.), 1% Glutamax (VWR, Radnor, Pa.), 1% Penicillin-Streptomycin (VWR, Radnor, Pa.), 100 mg/L Hygromycin (Thermo Fisher Scientific, Waltham, Mass. and 5 mg/L Blasticidin (Alfa Aesar, Haverhill, Mass.). Cells were grown and maintained at 37° C. in a humidified environment containing 10% CO2 in air. Cells were detached from the culture flask for passage and harvested using 0.05% Trypsin-EDTA (Thermo Fisher Scientific, Waltham, Mass.). To induce NaV1.7, cells were induced with tetracycline (0.1-1 μg/mL, IBI Scientific, Peosta, Iowa) the day before recording and plated onto 24-well plates. Cells were washed with DPBS (VWR, Radnor, Pa.), trypsinized and then triturated five times in 10 mL of growth media to break apart cell aggregates. For one 24-well plate, 2 mL of cell suspension was mixed with 23 mL of fresh growth media and 0.1-1 μg/mL tetracycline added. 1 ml of mixed media with cells was then added to each well of a 24-well plate, with a 12 mm coverslip already placed in the bottom of the well. Cells were then incubated in 37° C. and 10% CO2 overnight.
The intracellular solution contained the following (in mM) CsCl 135, NaCl 10, EGTA 10, HEPES 10, MgCl2 2, adjusted to pH 7.2 with CsOH. The external solution was a normal Ringer solution containing (in mM) NaCl 155, HEPES 10, glucose 10, KCl 3.5, CaCl2 1.5, MgCl2 1 adjusted to pH 7.4 with NaOH. CsCl is from Alfa Aesar, Haverhill, Mass. All other chemicals are from Sigma-Aldrich, St. Louis, Mo. In order to test the degree of internal block by test compounds the compounds were dissolved in internal solution at the indicated test concentration. […] In order to test the degree of external block by test compounds the compounds were dissolved in external solution at the indicated test concentration.
18-24 hours after cells were induced with tetracycline, coverslips were placed into a chamber filled with Normal Ringer solution at room temperature and the chamber placed on a microscope. Pipettes were pulled from borosilicate glass on a P97 puller (Sutter Instrument, Novato, Calif.) and polished with a MF-830 Microforge (Narishige International USA, Inc., Amityville, N.Y.) to have a resistance of 1.5-2.5 MΩ when filled with CsCl internal solution at room temperature. Healthy cells (those that are round and translucent with no visible blemishes) were chosen for seal formation. A seal was formed between the pipette and the cell, and a brief pulse of suction was used to “break in” and establish the whole-cell configuration. The membrane potential was held at −100 mV before the voltage protocol began. Only cells with series resistance between 1.5-5 MΩ were retained for analysis. The voltage protocol was as follows: Cells were held at −100 mV for 12 ms followed by a hyperpolarizing step to −105 mV for 12 ms to monitor the leak. Cells were then stepped back to −100 mV for 40 ms. Cells were then depolarized to −20 mV for 10 ms and then returned to −100 mV for 26 ms.
Once the recording was started, the voltage protocol was run at 30 second intervals for 5 minutes to get a stable baseline. This was followed by four 30-second periods of 5 Hz stimulation of the same voltage protocol separated by 1 minute of rest which was then followed by 0.33 Hz stimulation after the last train. Currents were recorded using PatchMaster software with Heka EPC10 (HEKA Electronics, Lambrecht, Germany). Only cells with inward current amplitudes at −20 mV between 400 pA and 4 nA were accepted. In addition, cells having leak currents greater than 10% of their current amplitudes were discarded. […]

[2] = PAMPA membrane permeability assay; assay type: in vitro ADME; details: permeability coefficient, pH 7.4 buffer, GIT lipid, 4 hours incubation
Method: The PAMPA assay (pION, Inc., Woburn Mass.) was used to determine the ability of compounds of the invention to cross an artificial lipid membrane by passive diffusion. Test compounds were dissolved in DMSO (10 mM) and diluted 200-fold in buffer (pION Inc., pH 7.4) to provide 50 uM stock solutions. Buffer (150 μL) was added to a UV blank plate and stock solutions (150 μL) were transferred to a UV reference plate. The blank and reference spectrum were read using a spectrophotometer. Stock solutions (200 μL) were added to the donor plate of the PAMPA sandwich plate and an accept plate painted with GIT lipid (pION Inc, 5) was placed on top. Buffer (200 μL) was added to the acceptor plate and the PAMPA sandwich plate was incubated for 4 hours. Aliquots (150 μL) from the acceptor plate were added to a UV plate and read as acceptor spectrum. Aliquots (150 μL) of the donor solutions were added to a UV analysis plate and read as donor spectrum. The permeability coefficient of test compounds was calculated using PAMPA Explorer™ software (version 3.5.0.4) based on the AUC of the reference plate, the donor plate, and the acceptor plate.
The PAMPA permeability results (10^−6 cm/s) of representative compounds are reported as “+” (<0.1 10^−6 cm/s), “++” (0.1-2.0 10^−6 cm/s), “+++” (2.0-10.010^−6 cm/s) or “++++” (>10.0 10^−6 cm/s).

T1 sequence (Q15858 whole entry): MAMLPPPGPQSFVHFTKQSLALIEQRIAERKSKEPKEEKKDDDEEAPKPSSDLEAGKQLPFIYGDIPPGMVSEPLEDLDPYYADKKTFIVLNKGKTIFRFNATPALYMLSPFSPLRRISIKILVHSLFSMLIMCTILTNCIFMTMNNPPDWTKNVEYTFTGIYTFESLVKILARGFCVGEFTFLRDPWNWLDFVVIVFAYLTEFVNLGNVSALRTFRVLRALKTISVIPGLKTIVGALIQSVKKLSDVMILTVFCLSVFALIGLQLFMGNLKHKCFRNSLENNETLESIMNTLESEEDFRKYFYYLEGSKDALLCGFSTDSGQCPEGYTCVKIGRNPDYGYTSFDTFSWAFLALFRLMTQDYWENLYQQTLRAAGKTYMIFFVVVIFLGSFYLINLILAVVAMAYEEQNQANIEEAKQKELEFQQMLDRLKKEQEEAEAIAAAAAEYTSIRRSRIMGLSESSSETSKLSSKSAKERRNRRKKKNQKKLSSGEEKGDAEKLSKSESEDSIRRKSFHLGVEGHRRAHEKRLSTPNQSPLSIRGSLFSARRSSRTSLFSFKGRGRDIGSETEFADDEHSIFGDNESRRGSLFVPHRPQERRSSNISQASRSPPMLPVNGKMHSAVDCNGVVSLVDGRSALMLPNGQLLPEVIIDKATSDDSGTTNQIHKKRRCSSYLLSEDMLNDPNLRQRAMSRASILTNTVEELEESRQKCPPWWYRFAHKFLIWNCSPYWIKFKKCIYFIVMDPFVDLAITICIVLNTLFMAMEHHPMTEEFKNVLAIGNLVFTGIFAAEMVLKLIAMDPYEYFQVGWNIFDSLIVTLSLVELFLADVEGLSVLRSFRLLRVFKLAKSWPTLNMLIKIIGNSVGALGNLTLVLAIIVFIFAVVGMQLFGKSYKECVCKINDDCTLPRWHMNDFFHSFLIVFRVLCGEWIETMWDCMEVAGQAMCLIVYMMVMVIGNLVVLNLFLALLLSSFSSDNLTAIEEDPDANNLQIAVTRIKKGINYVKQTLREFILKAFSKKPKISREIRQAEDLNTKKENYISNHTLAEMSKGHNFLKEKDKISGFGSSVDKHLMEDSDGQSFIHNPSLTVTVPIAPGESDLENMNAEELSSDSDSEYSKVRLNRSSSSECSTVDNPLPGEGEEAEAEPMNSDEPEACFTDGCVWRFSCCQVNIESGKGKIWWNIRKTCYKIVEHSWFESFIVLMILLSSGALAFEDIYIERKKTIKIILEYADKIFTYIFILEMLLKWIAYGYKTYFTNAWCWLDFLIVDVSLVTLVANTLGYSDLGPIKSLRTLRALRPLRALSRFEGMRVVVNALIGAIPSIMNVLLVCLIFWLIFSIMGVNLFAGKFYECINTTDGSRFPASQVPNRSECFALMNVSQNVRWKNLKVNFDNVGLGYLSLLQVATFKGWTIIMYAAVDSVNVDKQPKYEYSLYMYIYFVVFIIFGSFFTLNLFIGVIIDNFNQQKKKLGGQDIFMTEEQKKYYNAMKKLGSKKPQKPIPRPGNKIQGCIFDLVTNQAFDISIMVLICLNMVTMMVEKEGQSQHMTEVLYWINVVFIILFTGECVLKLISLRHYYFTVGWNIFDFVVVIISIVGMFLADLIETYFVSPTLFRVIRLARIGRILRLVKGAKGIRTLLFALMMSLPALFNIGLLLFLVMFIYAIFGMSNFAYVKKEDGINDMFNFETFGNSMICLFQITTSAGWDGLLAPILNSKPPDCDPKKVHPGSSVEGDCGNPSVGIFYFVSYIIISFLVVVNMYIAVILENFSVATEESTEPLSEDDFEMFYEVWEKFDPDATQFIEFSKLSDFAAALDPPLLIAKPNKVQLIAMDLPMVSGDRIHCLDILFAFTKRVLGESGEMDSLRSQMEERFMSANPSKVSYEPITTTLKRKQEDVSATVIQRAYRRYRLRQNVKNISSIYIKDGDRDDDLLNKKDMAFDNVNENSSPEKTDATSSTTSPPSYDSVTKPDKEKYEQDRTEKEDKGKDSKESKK

CCC(C(=O)Nc1c(C)cccc1C)[N+]1(Cc2cccc(OC)c2)CCCCC1 (centres unmarked) [Compound 23A, 1-(1-((2,6-dimethylphenyl)amino)-1-oxobutan-2-yl)-1-(3-methoxybenzyl) piperidin-1-ium bromide]
inhibition at 10 µM [1]: 70 to 95% | PAMPA (10^−6 cm/s) [2]: + (“+” (<0.1 10^−6 cm/s))

Cc1cccc(C)c1NC(=O)C[N+](C)(C)Cc1ccccc1 [Compound 2A, N-benzyl-2-((2,6-dimethylphenyl)amino)-N,N-dimethyl-2-oxoethan-1-aminium bromide]
inhibition at 10 µM [1]: 40 to 70% | PAMPA (10^−6 cm/s) [2]: + (“+” (<0.1 10^−6 cm/s))

CCc1cccc(C[N+]2(C(CC)C(=O)Nc3c(C)cccc3C)CCCCC2)c1 (centres unmarked) [Compound 20A]
inhibition at 3 µM [1]: > 90% | inhibition at 10 µM [1]: > 95% | PAMPA (10^−6 cm/s) [2]: + (“+” (<0.1 10^−6 cm/s))

CCC(C(=O)Nc1c(C)cccc1C)[N+]1(Cc2ccc(F)cc2)CCCCC1 (centres unmarked) [Compound 7A]
inhibition at 10 µM [1]: 70 to 95% | PAMPA (10^−6 cm/s) [2]: + (“+” (<0.1 10^−6 cm/s))

CCc1ccccc1C[N+]1(C(CC)C(=O)Nc2c(C)cccc2C)CCCCC1 (centres unmarked) [Compound 21A]
inhibition at 3 µM [1]: > 90% | inhibition at 10 µM [1]: > 95% | PAMPA (10^−6 cm/s) [2]: + (“+” (<0.1 10^−6 cm/s))

Cc1cccc(C)c1N1CCCC([N+]2(Cc3ccccc3)CCCCCC2)C1=O (centres unmarked) [Compound 93A]
inhibition at 3 µM [1]: 70 to 90% | PAMPA (10^−6 cm/s) [2]: + (“+” (<0.1 10^−6 cm/s))

CCC(C(=O)Nc1c(C)cccc1C)[N+]1(Cc2cc(C)on2)CCCCC1 (centres unmarked) [Compound 27A]
inhibition at 10 µM [1]: 70 to 95% | PAMPA (10^−6 cm/s) [2]: + (“+” (<0.1 10^−6 cm/s))

CCC(C(=O)Nc1c(C)cccc1C)[N+]1(Cc2cccc(C)c2)CCCCC1 (centres unmarked) [Compound 17A]
inhibition at 10 µM [1]: > 95% | PAMPA (10^−6 cm/s) [2]: + (“+” (<0.1 10^−6 cm/s))

CCC(C(=O)Nc1c(C)cc(C)cc1C)[N+]1(Cc2ccccc2)CCCCC1.[Br-] (centres unmarked) [Compound 39A, 1-benzyl-1-(1-(mesitylamino)-1-oxobutan-2-yl) piperidin-1-ium bromide]
inhibition at 10 µM [1]: 70 to 95% | PAMPA (10^−6 cm/s) [2]: + (“+” (<0.1 10^−6 cm/s))

Cc1cccc(C)c1NC(=O)C[N+]1(Cc2ccccc2)CCCC1.[Br-] [Compound 5A, 1-benzyl-1-(2-((2,6-dimethylphenyl)amino)-2-oxoethyl) pyrrolidin-1-ium bromide]
inhibition at 3 µM [1]: > 90% | inhibition at 10 µM [1]: 70 to 95% | PAMPA (10^−6 cm/s) [2]: + (“+” (<0.1 10^−6 cm/s))

CCC(C(=O)Nc1c(C)cccc1C)[N+]1(Cc2cccc(C#N)c2)CCCCC1 (centres unmarked) [Compound 14A]
inhibition at 10 µM [1]: 70 to 95% | PAMPA (10^−6 cm/s) [2]: + (“+” (<0.1 10^−6 cm/s))

CCc1ccc(C[N+]2(C(CC)C(=O)Nc3c(C)cccc3C)CCCCC2)cc1 (centres unmarked) [Compound 19A]
inhibition at 10 µM [1]: 40 to 70% | PAMPA (10^−6 cm/s) [2]: + (“+” (<0.1 10^−6 cm/s))

CCC(C(=O)Nc1c(C)cccc1C)[N+]1(Cc2ccc(C#N)cc2)CCCCC1 (centres unmarked) [Compound 13A]
inhibition at 10 µM [1]: 70 to 95% | PAMPA (10^−6 cm/s) [2]: + (“+” (<0.1 10^−6 cm/s))

CCC(C(=O)Nc1c(C)cccc1C)[N+]1(Cc2ccccc2C)CCCCC1 (centres unmarked) [Compound 18A]
inhibition at 10 µM [1]: 70 to 95% | PAMPA (10^−6 cm/s) [2]: + (“+” (<0.1 10^−6 cm/s))

Cc1cccc(C)c1NC(=O)C[N+]1(Cc2ccccc2)CCCCCCC1.[Br-] [Compound 31A, 1-benzyl-1-(2-((2,6-dimethylphenyl)amino)-2-oxoethyl)azocan-1-ium bromide]
inhibition at 3 µM [1]: > 90% | inhibition at 10 µM [1]: > 95% | PAMPA (10^−6 cm/s) [2]: + (“+” (<0.1 10^−6 cm/s))

CCC(C(=O)Nc1c(C)cccc1C)[N+]1(Cc2cnn(C)c2)CCCCC1.[Br-] (centres unmarked) [Compound 34A, 1-(1-((2,6-dimethylphenyl)amino)-1-oxobutan-2-yl)-1-((1-methyl-1H-pyrazol-4-yl)methyl) piperidin-1-ium bromide]
inhibition at 3 µM [1]: 70 to 90% | PAMPA (10^−6 cm/s) [2]: + (“+” (<0.1 10^−6 cm/s))

CCC(C(=O)Nc1c(C)cccc1C)[N+]1(Cc2ccsc2)CCCCC1 (centres unmarked) [Compound 26A]
inhibition at 10 µM [1]: 70 to 95% | PAMPA (10^−6 cm/s) [2]: + (“+” (<0.1 10^−6 cm/s))
